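All cell lines were grown in 96-well plates and treated with compound for 48 hours. Abbreviation: GI50, concentration required for 50% inhibition of growth.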 Activity calls are given as the source filed them. Cut-off read from the data, not from the text of the source: active = GI50 up to about 1.1 µM and inactive = higher.
What was measured:
Test in all cases: inhibition of tumour cell growth, NCI panel, 48 h
[1] = test system: 786-0
[2] = test system: A498
[3] = test system: A549
[4] = test system: ACHN
[5] = test system: BT-549
[6] = test system: CCRF-CEM
[7] = test system: COLO 205
[8] = test system: DU-145
[9] = test system: EKVX
[10] = test system: HCC 2998
[11] = test system: HCT-116
[12] = test system: HCT-15
[13] = test system: HL-60
[14] = test system: HOP-62
[15] = test system: HOP-92
[16] = test system: HT-29
[17] = test system: IGROV-1
[18] = test system: K562
[19] = test system: KM12
[20] = test system: LOX IMVI
[21] = test system: M14
[22] = test system: MCF7
[23] = test system: MDA-MB-231
[24] = test system: MDA-MB-435
[25] = test system: MOLT-4
[26] = test system: NCI-H226
[27] = test system: NCI-H460
[28] = test system: NCI-H522
[29] = test system: NCI/ADR-RES
[30] = test system: OVCAR-3
[31] = test system: OVCAR-4
[32] = test system: OVCAR-5
[33] = test system: OVCAR-8
[34] = test system: PC-3
[35] = test system: RPMI-8226
[36] = test system: RXF 393
[37] = test system: SF-268
[38] = test system: SF-295
[39] = test system: SF-539
[40] = test system: SK-MEL-28
[41] = test system: SK-MEL-2
[42] = test system: SK-MEL-5
[43] = test system: SK-OV-3
[44] = test system: SN12C
[45] = test system: SNB-75
[46] = test system: SR
[47] = test system: SW-620
[48] = test system: T47D
[49] = test system: TK-10
[50] = test system: U-251
[51] = test system: UACC-257
[52] = test system: UACC-62
[53] = test system: UO-31

With `O=C(NCCCN(CCCCN(CCCNC(=O)C(F)(F)F)Cc1ccc2ccccc2c1)Cc1ccc2ccccc2c1)C(F)(F)F` the GI50 [1] was > 100 µM (inactive), the GI50 [2] was > 100 µM (inactive) and the GI50 [3] was > 100 µM (inactive). The GI50 [4] was > 100 µM (inactive), the GI50 [5] was 6.22 µM (inactive) and the GI50 [6] was > 78.2 µM (inactive). The GI50 [7] was 1.95 µM (inactive), the GI50 [8] was > 100 µM (inactive) and the GI50 [9] was > 100 µM (inactive). The GI50 [10] was 1.53 µM (inactive), the GI50 [11] was 4.45 µM (inactive) and the GI50 [12] was 6.12 µM. For the same compound, the GI50 [13] was 0.74 µM (active), the GI50 [14] was > 100 µM (inactive) and the GI50 [15] was > 100 µM (inactive). The GI50 [16] was 1.44 µM (inactive), the GI50 [17] was 7.87 µM (inactive) and the GI50 [18] was 2.48 µM (inactive). The GI50 [19] was 5.83 µM (inactive), the GI50 [20] was 4.36 µM (inactive) and the GI50 [21] was 1.99 µM (inactive). For the same compound, the GI50 [22] was 1.95 µM (inactive), the GI50 [23] was > 100 µM (inactive) and the GI50 [24] was 1.9 µM (inactive). The GI50 [25] was 5.28 µM (inactive), the GI50 [26] was > 100 µM (inactive) and the GI50 [27] was 2.21 µM (inactive). For the same compound, the GI50 [28] was 8.93 µM (inactive), the GI50 [29] was 73.5 µM (inactive) and the GI50 [30] was > 100 µM (inactive). For the same compound, the GI50 [31] was 2.62 µM (inactive), the GI50 [32] was > 100 µM (inactive) and the GI50 [33] was > 100 µM (inactive). The GI50 [34] was 6.95 µM (inactive), the GI50 [35] was 2.81 µM (inactive) and the GI50 [36] was 3.77 µM (inactive). For the same compound, the GI50 [37] was > 100 µM (inactive), the GI50 [38] was > 28.6 µM (inactive) and the GI50 [39] was 4.62 µM (inactive). For the same compound, the GI50 [40] was 2.32 µM (inactive), the GI50 [41] was > 20 µM (inactive) and the GI50 [42] was 1.75 µM (inactive). For the same compound, the GI50 [43] was > 100 µM (inactive), the GI50 [44] was > 100 µM (inactive) and the GI50 [45] was > 100 µM (inactive). The GI50 [46] was 2.7 µM (inactive), the GI50 [47] was > 100 µM (inactive) and the GI50 [48] was 5.05 µM (inactive). For the same compound, the GI50 [49] was > 100 µM (inactive), the GI50 [50] was 3.91 µM (inactive) and the GI50 [51] was 2.28 µM (inactive). The GI50 [52] was 2.31 µM (inactive) and the GI50 [53] was 2.33 µM (inactive).
